Laboratory results taken from ChEMBL document CHEMBL5143519, “Exploring disordered loops in DprE1 provides a functional site to combat drug-resistance in Mycobacterium strains” (Eur J Med Chem, 2022).
In brackets after ≈: the same amount, converted by molar mass. Activity calls are given as the source filed them. The calls are words filed in the database; no cut-off is given here.

Experiments:
[1] = target: T1, Decaprenylphosphoryl-beta-D-ribose oxidase (Mycobacterium tuberculosis (strain ATCC 25618 / H37Rv), UniProt P9WJF1); assay: Inhibition of Mycobacterium tuberculosis wild type DprE1 expressed in Escherichia coli BL21 DE3 assessed as formation of resorufin using FPR as substrate incubated for 10 mins by Amplex Red dye microplate assay
T1 sequence (P9WJF1 whole entry): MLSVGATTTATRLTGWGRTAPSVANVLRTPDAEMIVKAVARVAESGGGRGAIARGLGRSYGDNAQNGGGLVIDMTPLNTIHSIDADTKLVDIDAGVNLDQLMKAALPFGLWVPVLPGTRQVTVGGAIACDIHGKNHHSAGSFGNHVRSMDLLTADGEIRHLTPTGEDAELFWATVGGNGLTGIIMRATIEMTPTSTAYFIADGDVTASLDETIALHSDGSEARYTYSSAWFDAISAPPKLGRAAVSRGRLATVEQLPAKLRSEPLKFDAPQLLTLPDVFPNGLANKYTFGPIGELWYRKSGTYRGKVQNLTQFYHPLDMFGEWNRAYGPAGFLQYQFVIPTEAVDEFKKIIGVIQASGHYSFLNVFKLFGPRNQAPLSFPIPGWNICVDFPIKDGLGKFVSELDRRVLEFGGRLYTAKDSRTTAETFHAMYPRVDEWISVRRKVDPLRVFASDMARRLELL

[2] = test system: Mycobacterium tuberculosis; assay: Antimycobacterial activity against Mycobacterium tuberculosis H37Rv assessed as inhibition of bacterial growth incubated for 7 days by microplate alamar blue assay; format: functional; conditions: 168 h, time 7 day
[3] = test system: Mycolicibacterium smegmatis; assay: Antimycobacterial activity against Mycobacterium smegmatis wild type DprE1 assessed as inhibition of bacterial growth incubated for 7 days by microplate alamar blue assay; format: functional; conditions: 168 h, time 7 day
[4] = test system: Mycolicibacterium smegmatis; assay: Antimycobacterial activity against Mycobacterium smegmatis mc2155 assessed as inhibition of bacterial growth incubated for 7 days by microplate alamar blue assay; format: functional; conditions: mc2155, 168 h, time 7 day
[5] = test system: Mycobacterium tuberculosis; assay: Antimycobacterial activity against Mycobacterium tuberculosis H37Rv assessed as reduction in bacterial colony forming units at 20 times MIC concentration measured after 21 days by time kill assay; format: functional; conditions: time 21 day
[6] = test system: Mycobacterium tuberculosis; assay: Antimycobacterial activity against Mycobacterium tuberculosis H37Rv infected in mouse macrophage J774A.1 cell assessed as reduction in bacterial colony forming units incubated for 21 days; format: functional; conditions: time 21 day
[7] = test system: Mycobacterium tuberculosis; assay: Antimycobacterial activity against Mycobacterium tuberculosis H37Rv assessed as reduction in bacterial colony forming units at 20 times MIC concentration measured after 7 days by time kill assay; format: functional, organism-based; conditions: time 7.0 day

| Structure (SMILES) | IC50 [1] [µM] | MIC [2] [µM] | MIC [3] [µM] | MIC [4] [µM] | Activity [5] [log10CFU/ml] | Activity [6] [log10CFU] | Activity [7] |
| --- | --- | --- | --- | --- | --- | --- | --- |
| O=C(NC(=O)c1ccsc1NC(=O)c1nc2ccccc2s1)OCC1CCCC1 | 22.4 | > 250 |  |  |  |  |  |
| O=C(NC(=O)c1ccsc1NC(=O)c1nc2ccccc2s1)OC1CCC1 | 18.6 | > 250 |  |  |  |  |  |
| CCOC(=O)NC(=O)c1ccsc1NC(=O)c1nc2ccccc2s1 | 0.053 | 1.68 (≈ 0.631 µg/mL) | 0.23 (≈ 0.0863 µg/mL) | 33.2 (≈ 12.5 µg/mL) | 3 | 0.6 |  |
| O=C(NC(=O)c1ccsc1NC(=O)c1nc2ccccc2s1)OCC1CC1 | 0.01 | 0.77 (≈ 0.309 µg/mL) |  | 12.4 (≈ 4.99 µg/mL) | 3 | 1.1 | Active |
| CCOC(=O)NC(=O)c1ccsc1NC(=O)c1ccc(C#N)cn1 | 41.2 | > 300 |  |  |  |  |  |
| O=C(NC(=O)c1ccsc1NC(=O)c1nc2ccccc2s1)OCC1CCCCC1 | > 64 | > 250 |  |  |  |  |  |
| O=C(NC(=O)c1ccsc1NC(=O)c1nc2ccccc2s1)OCC1CCC1 | 0.098 | 3.01 (≈ 1.25 µg/mL) |  | 24.1 (≈ 9.99 µg/mL) |  | 0.9 |  |
| CC(=O)c1ccc(C(=O)Nc2sccc2C(=O)NC(=O)OCC2CC2)cc1 | 1.21 | 51.8 (≈ 20 µg/mL) |  |  |  |  |  |
| CCOC(=O)NC(=O)c1cc(F)sc1NC(=O)c1nc2ccccc2s1 |  |  | 0.046 (≈ 0.0181 µg/mL) |  |  |  |  |
| CCOC(=O)NC(=O)c1ccsc1NC(=O)c1nc2cnccc2s1 |  |  | 0.089 (≈ 0.0335 µg/mL) |  |  |  |  |
| CCOC(=O)NC(=O)c1ccsc1NC(=O)c1ccc(C(C)=O)cc1 | 36.4 | > 300 |  |  |  |  |  |
| N#Cc1ccc(C(=O)Nc2sccc2C(=O)NC(=O)OCC2CC2)cc1 | 18.9 | > 250 |  |  |  |  |  |
| N#Cc1ccc(C(=O)Nc2sccc2C(=O)NC(=O)OCC2CC2)nc1 | 11.5 | 216 (≈ 79.8 µg/mL) |  |  |  |  |  |
| CCOC(=O)NC(=O)c1ccsc1NC(=O)c1ccc(C#N)cc1 | > 64 | > 300 |  |  |  |  |  |
| CO[C@H]1/C=C/O[C@@]2(C)Oc3c(C)c(O)c4c(O)c(c(/C=N/N5CCN(C)CC5)c(O)c4c3C2=O)NC(=O)/C(C)=C\C=C\[C@H](C)[C@H](O)[C@@H](C)[C@@H](O)[C@@H](C)[C@H](OC(C)=O)[C@@H]1C [RIFAMPIN] |  | 0.11 (≈ 0.0905 µg/mL) |  | 0.35 (≈ 0.288 µg/mL) | 3 | 1.1 |  |
